Patent US20110136751A1, “Use of Polyphenols in the Treatment of Cancer” (Green Molecular, priority 2009, published 2011)
Marks after values point to notes of the source that are not given here.

Experiments:
[1] = tested on: bcl-2; experiment: bcl-2 expression (RT-PCR) in cultured HT-29 cells; format: cell-based, human; settings: p65 siRNA transfection or 10 μg DHMEQ/ml, 12 h after removing the inhibitor
Description: Transfection of siRNA was performed as explained under “Materials and Methods”. (A) western blot analysis of p65 in cells transfected with p65 siRNA, or NS siRNA. For comparison NF-κB binding to DNA (B) and bcl-2 expression (RT-PCR) (C) were determined in HT-29 cells transfected with p65 siRNA or treated with dehydroxymethylepoxyquinomicin (DHMEQ). For this purpose cultured HT-29 cells (24 h after seeding) were incubated in the absence or in the presence of 10 μg DHMEQ/ml, and NF-κB activation and bcl-2 expression were measured 2 h and 12 h, respectively, after removing the inhibitor.
Total RNA was isolated using the trizol kit from Invitrogen and following manufacturer's instructions. cDNA was obtained using a random hexamer primer and a MultiScribe Reverse Transcriptase kit as described by the manufacturer (TaqMan RT Reagents, Applied Biosystems, Foster City, Calif.). […]
Real-time quantitation of the mRNA relative to GAPDH was performed with a SYBR Green I assay, and a iCycler detection system (Biorad, Hercules, Calif.). […] The increase in fluorescence was measured in real time during the extension step. The threshold cycle (CT) was determined, and then the relative gene expression was expressed as: fold change=2^−Δ(ΔCT), where ΔCT=CT target−CT GAPDH, and Δ (ΔCT)=ΔCT treated−ΔCT control. […]

[2] = tested on: NF-κB p50/65; experiment: NF-κB DNA binding ELISA in HT-29 nuclear extracts; format: cell-based, human; settings: HT-29 cells; p65 siRNA transfection or 10 μg DHMEQ/ml, 2 h after removing the inhibitor
Description: HT-29 cells were cultured and treated with PFs as indicated in the caption to FIG. 1. (A) NF-κB binding to DNA (measured 3 h after the last PF addition). Recombinant human TNFα (0.5 nM, Sigma, St. Louis, Mo.) was added 6 h before the last PF addition. IκBα (B) and P-IκBα (C) analysis by western blot (lane 1, TNFα; lane 2, control; lane 3, […]). Relative densitometric intensities for protein bands from western blots of IκBα and P-IκBα) were normalized to β-actin (black bar, TNFα; white bar, control; grey bar, […]). […] Transfection of siRNA was performed as explained under “Materials and Methods”. (A) western blot analysis of p65 in cells transfected with p65 siRNA, or NS siRNA. For comparison NF-κB binding to DNA (B) and bcl-2 expression (RT-PCR) (C) were determined in HT-29 cells transfected with p65 siRNA or treated with dehydroxymethylepoxyquinomicin (DHMEQ). […] Nuclear extract were prepared as previously described (18). An enzyme linked immunosorbent assay (ELISA) was performed in line with the manufacturer's protocol for a commercial kit (Chemiluminiscent NF-κB p50/65 Transcription Factor Assay, Oxford Biomedical Research, Oxford, Mich.). […] The DNA bound NF-κB is selectively recognized by the primary antibody, which, in turn, is detected by the secondary antibodyalkaline phosphatase conjugate. […]

[3] = tested on: SOD1; experiment: SOD activity in xenograft samples; format: in vivo, human; settings: single treatment (PQ or SOD2-AS)
Description: (§1) Tumor tissue was homogenized in 0.1M phosphate buffer (pH 7.2) at 4° C.
(§2) Superoxide dismutase (SOD) activity was measured as described by Flohé and Otting (14), using 2 mM cyanide in the assay medium to distinguish mangano-type enzyme (SOD2) from the cuprozinc type (SOD1).

[4] = tested on: SOD2; experiment: SOD activity in xenograft samples; format: in vivo, human
Description: as §1, §2

[5] = tested on: bcl-2; experiment: Bcl-2 protein enzyme immunoassay in xenograft samples; format: in vivo, human; settings: single treatment (PQ or SOD2-AS)
Description: (§3) The Tet-off gene expression system (Clontech, Palo Alto, Calif.) was used, as previously reported (17), to insert the human bcl-2 gene and for transfection into HT-29 cells following manufacturer's instructions. Bcl-2 protein was quantitated in the soluble cytosolic fraction by enzyme immunoassay (17) using a monoclonal antibody-based assay from Sigma (one unit of Bcl-2 was defined as the amount of Bcl-2 protein in 1000 non-transfected HT-29 cells).

[6] = tested on: HT-29 xenografts; experiment: HT-29 xenograft growth; format: in vivo, nu/nu nude mice; settings: Table 3B; HT-29; 30 days after inoculation
Description: Tumor growth was measured during a 30-day period. Tumor volume, one week after inoculation and before PF administration, was of 56+15 mm3. A. […] B. Growth profile of control ([…]) and t-PTER- and QUER (∘) (20 mg of each PF/kg)-treated HT-29-bearing mice. Data are means±S.D. of 18-20 mice per group. The significant test refers, for all groups, to the comparison between PTER and/or QUER and controls (treated with physiological saline) (*P<0.01). For HT-29 cancer cell xenograft experiments, female nu/nu nude mice (ages 6 to 8 weeks; […] Tumor volume was calculated based on two dimensions, measured using calipers, and was expressed in cubic millimeters according to the formula: […] For histological analysis the surgical and xenograft tissue samples were fixed in 4% formaldehyde, paraffin embedded, and stained with hematoxilin & eosin and safran. […] This study was conducted in compliance with international laws and policies (EEC Directive 86/609, OJ L 358. 1, Dec. 12, 1987; and NIH Guide for the Care and Use of Laboratory Animals, NIH Publ. No. 85-23, 1985). X rays were administered using a […] SL75 linear accelerator from Philips. For this purpose each mouse was anesthetized with nembutal (50 mg/kg i.p.), and fixed on a Perspex platform.

[7] = tested on: HT-29/Tet-bcl-2 xenografts; experiment: HT-29/Tet-bcl-2 xenograft growth; format: in vivo, mice; settings: Table 3B, 30 days after inoculation
Description: For HT-29 cancer cell xenograft experiments, female nu/nu nude mice (ages 6 to 8 weeks; Charles Rivers Laboratories, Wilmington, Mass.) were inoculated s.c. with 5×10^6 HT-29 or HT-29-GFP cells per mouse. Tumor volume was calculated based on two dimensions, measured using calipers, and was expressed in cubic millimeters according to the formula: V=0.5a×b2, where a and b are the long and the short diameters of the tumor, respectively. For histological analysis the surgical and xenograft tissue samples were fixed in 4% formaldehyde, paraffin embedded, and stained with hematoxilin & eosin and safran. Mice were monitored for at least 30 days after inoculation, and tumor measurements were taken on day 5, 10, 15, 20, 25, and 30. This study was conducted in compliance with international laws and policies (EEC Directive 86/609, OJ L 358. 1, Dec. 12, 1987; and NIH Guide for the Care and Use of Laboratory Animals, NIH Publ. No. 85-23, 1985). […]
as §3

NF-κB binding to DNA [2] | Compound | bcl-2 expression [1] | SOD1 activity ([3]; HT-29/tet-Bcl-2 xenograft) [Units/mg protein] | SOD1 activity ([3]; HT-29 xenograft) [Units/mg protein] | SOD2 activity ([4]; HT-29/tet-Bcl-2 xenograft, single treatment (PQ or SOD2-AS)) [Units/mg protein] | SOD2 activity ([4]; HT-29 xenograft, single treatment (PQ 20 mg each/kg or SOD2-AS 5 mg/kg each 3 days)) | Bcl-2 levels ([5]; HT-29/tet-Bcl-2 xenograft) | Bcl-2 levels ([5]; HT-29 xenograft) [Units/mg protein] | Tumor volume [6] | Tumor volume [7]
significant decrease | O=C(NC1=CC(=O)[C@H]2O[C@H]2[C@H]1O)c1ccccc1O [DHMEQ, dehydroxymethylepoxyquinomicin] | significant decrease | – | – | – | – | – | – | – | –
– | SOD2-AS: Fully phosphorothioated 21-mer human SOD2 antisense oligodeoxynucleotide, 5′-GGAACCUCACAUCAACGCGCA-3′ (DNA, all phosphorothioate, methylation of C and T or U not given here) | – | 6.3 ± 0.48 | 5.77 ± 0.62 | 0.33 ± 0.12 | 0.27 ± 0.056^b Units/mg protein | 81 ± 9^a Units/mg protein | 19 ± 3 | 2337 ± 266^b mm^3 | 2942 ± 387^ab mm^3
